The assay deals with T1, human cannabinoid CB2 receptor (Homo sapiens, UniProt P34972).
T1 construct: expressed in transfected cells; host or cells: Saccharomyces cerevisiae strain MMY23 (cassette integrated at the ura3 locus; chimeric Gpa1/Gαi3)
Put plainly: Cannabinoid CB2 receptor agonist activity, yeast (Saccharomyces cerevisiae) cells expressing the receptor, FDGlu fluorescence. Format: cell-based. The settings on record: for Emax: read-out: efficacy (Emax relative to HU210) at the cloned human cannabinoid CB2 receptor. As for the experimental part: The cannabinoid CB2 receptor agonist activity of the compounds of formula (I) was determined in accordance with the following experimental method.
Yeast (Saccharomyces cerevisiae) cells expressing the human cannabinoid CB2 receptor were generated by integration of an expression cassette into the ura3 chromosomal locus of yeast strain MMY23. This cassette consisted of DNA sequence encoding the human CB2 receptor flanked by the yeast GPD promoter to the 5′ end of CB2 and a yeast transcriptional terminator sequence to the 3′ end of CB2. MMY23 expresses a yeast/mammalian chimeric G-protein alpha subunit in which the C-terminal 5 amino acids of Gpa1 are replaced with the C-terminal 5 amino acids of human Gαi3 (as described in Brown et al. (2000), Yeast 16:11-22). Cells were grown at 30° C. in liquid Synthetic Complete (SC) yeast media (Guthrie and Fink (1991), Methods in Enzymology, Vol. 194) lacking uracil, tryptophan, adenine and leucine to late logarithmic phase (approximately 6 OD600/ml).
Agonists were prepared as 10 mM stocks in DMSO. EC50 values (the concentration required to produce 50% maximal response) were estimated using dilutions of between 3- and 5-fold (BiomekFX, Beckman) into DMSO. Agonist solutions in DMSO (1% final assay volume) were transferred into black, clear bottom, microtitre plates from NUNC (96- or 384-well). Cells were suspended at a density of 0.2 OD600/ml in SC media lacking histidine, uracil, tryptophan, adenine and leucine and supplemented with 10 mM 3-aminotriazole, 0.1M sodium phosphate pH 7.0, and […] fluorescein di-β-D-glucopyranoside (FDGlu). This mixture (50 ul per well for 384-well plates, 200 ul per well for 96-well plates) was added to agonist in the assay plates (Multidrop 384, Labsystems). After incubation at 30° C. for 24 hours, fluorescence resulting from degradation of FDGlu to fluorescein due to exoglucanase, an endogenous yeast enzyme produced during agonist-stimulated cell growth, was determined using a Spectrofluor microtitre plate reader (Tecan; excitation wavelength: 485 nm; emission wavelength: 535 nm). Fluorescence was plotted against compound concentration and iteratively curve fitted using a four parameter fit to generate a concentration effect value. Efficacy (Emax) was calculated from the equation
Emax=Max[compound X]−Min[compound X]/Max[HU210]−Min[HU210]×100%
where Max[compound X] and Min[compound X] are the fitted maximum and minimum respectively from the concentration effect curve for compound X, and Max[HU210] and Min[HU210] are the fitted maximum and minimum respectively from the concentration effect curve for (6aR,10aR)-3-1,1′-Dimethylheptyl)-6a,7,10,10a-tetrahydro-1-hydroxy-6,6-dimethyl-6H-dibenzo[b,d]pyran-9-methanol (HU210; available from Tocris). Equieffective molar ratio (EMR) values were calculated from the equation
Where EC50[compound X] is the EC50 of compound X and EC50[HU210] is the EC50 of HU210.

The mark [1] stands for this setting: yeast agonist assay, read-out: EC50 at the cloned human cannabinoid CB2 receptor.

SMILES strings stand for the structures. Where a name gives a salt, the structure may show the parent alone. Read-outs that look alike come from different tables or passages of the source.

T1 sequence (P34972 whole entry): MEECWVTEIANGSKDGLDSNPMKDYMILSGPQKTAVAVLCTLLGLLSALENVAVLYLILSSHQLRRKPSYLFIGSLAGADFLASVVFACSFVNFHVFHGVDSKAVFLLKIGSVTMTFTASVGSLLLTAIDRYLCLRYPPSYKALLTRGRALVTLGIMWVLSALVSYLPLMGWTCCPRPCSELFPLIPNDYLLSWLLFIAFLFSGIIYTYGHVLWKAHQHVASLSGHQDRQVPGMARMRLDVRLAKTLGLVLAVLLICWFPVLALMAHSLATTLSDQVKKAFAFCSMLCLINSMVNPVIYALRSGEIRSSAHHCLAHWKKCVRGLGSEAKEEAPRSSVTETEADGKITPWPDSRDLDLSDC

The term EC50 denotes the concentration at which the effect is half-maximal. The Emax is the maximal effect, on the per cent scale that the assay sets. With `CC(C)CNCc1cnc(Nc2ccc(Cl)cc2Cl)nc1C(F)(F)F` [Example 27, (2,4-Dichlorophenyl)-{5-[(isobutylamino)-methyl]-4-trifluoromethyl-pyrimidin-2yl}-amine], the EC50 is less than 300 nM and the Emax is greater than 50%.

In the case of `Fc1cccc(Nc2ncc(CNC3CC3)c(C(F)(F)F)n2)c1` [Example 38, (3-Fluorophenyl)-(5-cyclopropylaminomethyl-4-trifluoromethyl-pyrimidin-2-yl)-amine], the EC50 under setting [1] was less than 300 nM. Where the note is “yeast agonist assay”, the maximal response (Emax) was greater than 50%.

For the compound `CCCNCc1cnc(Nc2cccc(Cl)c2)nc1C(F)(F)F` [Example 19, (3-Chlorophenyl)-(5-propylaminomethyl-4-trifluoromethyl-pyrimidin-2-yl)-amine,formate], the EC50 under setting [1] is less than 300 nM. In addition, the Emax (yeast agonist assay) is greater than 50%.

As for `O=S1(=O)CCC(NCc2cnc(Nc3cccc(Cl)c3)nc2C(F)(F)F)CC1` [Example 26, (3-Chlorophenyl)-{5-[(1,1-dioxo-hexahydro-1l^6-thiopyran-4-ylamino)-methyl]-4-trifluoromethyl-pyrimidin-2-yl}-amine, formate], the Emax was greater than 50%. Also, the EC50 under setting [1] is less than 300 nM.

Turning to `CC(C)CNCc1cnc(Nc2cccc(F)c2)nc1C(F)(F)F` [Example 36, (3-Fluorophenyl)-{5-[(isobutylamino)-methyl]-4-trifluoromethyl-pyrimidin-2yl}-amine, formate], the EC50 under setting [1] was less than 300 nM. Further, where the note is “yeast agonist assay”, the Emax was greater than 50%.

`CCCCNCc1cnc(Nc2cccc(Cl)c2)nc1C(F)(F)F` [Example 22, (3-Chlorophenyl)-(5-butylaminomethyl-4-trifluoromethyl-pyrimidin-2-yl)-amine,formate]: under setting [1], the EC50 was less than 300 nM. Besides, for the setting “yeast agonist assay”, the Emax is greater than 50%.

`FC(F)(F)c1nc(Nc2cccc(Cl)c2)ncc1CNC1CCOCC1` [Example 16, (3-Chlorophenyl)-{5-[(tetrahydro-pyran-4-ylamino)-methyl]-4-trifluoromethyl-pyrimidin-2-yl}-amine, formate]: the EC50 under setting [1] was less than 300 nM. Also, the Emax (yeast agonist assay) was greater than 50%.

As to `CC(NC1CC1)c1cnc(Nc2cccc(F)c2)nc1C(F)(F)F` (centres unmarked) [Example 86, (3-Fluorophenyl)-[5-(1-cyclopropylamino-ethyl)-4-trifluoromethyl-pyrimidin-2-yl]-amine], the EC50 was less than 300 nM and the Emax is greater than 50%.

With `CC(C)CNCc1cnc(Nc2cccc(Cl)c2)nc1C1CC1` [Example 5, (3-Chloro-phenyl)-[4-cyclopropyl-5-(isobutylamino-methyl)-pyrimidin-2-yl]-amine], the EC50 under setting [1] was less than 300 nM. Further, the Emax (yeast agonist assay) is greater than 50%.

In the case of `FC(F)(F)c1nc(Nc2cccc(Cl)c2)ncc1CN1CCCC1` [Example 40, (3-Chlorophenyl)-(5-pyrrolidin-1-ylmethyl-4-trifluoromethyl-pyrimidin-2-yl)-amine, formate], the Emax is greater than 50%. Moreover, under setting [1], the EC50 lay in the range of 300 to 1000 nM.

`N#Cc1cccc(Nc2ncc(CNC3CC3)c(C(F)(F)F)n2)c1` [Example 58, (3-Cyanophenyl)-(5-cyclopropylaminomethyl-4-trifluoromethyl-pyrimidin-2-yl)-amine,formate]: the Emax was greater than 50%. Also, the EC50 under setting [1] was 300 to 1000 nM.

Consider `Fc1cccc(Nc2ncc(CNCC3CC3)c(C(F)(F)F)n2)c1` [Example 54, (3-Fluorophenyl)-{5-[(cyclopropylmethylamino)-methyl]-4-trifluoromethyl-pyrimidin-2-yl}-amine,formate], for which the Emax was greater than 50%. Also, the EC50 under setting [1] lay within 300 to 1000 nM.

Consider `Fc1cccc(Nc2ncc(CN3CCOCC3)c(C(F)(F)F)n2)c1` [Example 56, (3-Fluorophenyl)-(5-morpholin-4-ylmethyl-4-trifluoromethyl-pyrimidin-2-yl)-amine], for which the Emax is greater than 50%. In addition, under setting [1], the concentration giving a half-maximal response (EC50) lay in the range of 300 to 1000 nM.

For `CC(C)CNCc1cnc(Nc2cccc(C#N)c2)nc1C(F)(F)F` [Example 59, (3-Cyanophenyl)-{5-[(isobutylamino)-methyl]-4-trifluoromethyl-pyrimidin-2yl}-amine, formate], the Emax is greater than 50%. The EC50 under setting [1] was 300 to 1000 nM.

Take `CC(C)c1nc(Nc2cccc(Cl)c2)ncc1CN1CCOCC1` [Example 6, (3-Chloro-phenyl)-(4-isopropyl-5-morpholin-4-ylmethyl-pyrimidin-2-yl)-amine]: the EC50 under setting [1] is less than 300 nM. For the same compound, the Emax (yeast agonist assay) was greater than 50%.

For `CN(C)Cc1cnc(Nc2cccc(Cl)c2)nc1C(F)(F)F` [Example 44, (3-Chlorophenyl)-(5-dimethylaminomethyl-4-trifluoromethyl-pyrimidin-2-yl)-amine, formate], the Emax was greater than 50%. In addition, the EC50 under setting [1] was 300 to 1000 nM.

Turning to `CC(C)CNC(C)c1cnc(Nc2cccc(F)c2)nc1C(F)(F)F` (centres unmarked) [Example 87, (3-Fluorophenyl)-[5-(1-isobutylamino-ethyl)-4-trifluoromethyl-pyrimidin-2-yl]-amine], the EC50 under setting [1] was less than 300 nM. Moreover, where the note is “yeast agonist assay”, the Emax was greater than 50%.

Turning to `CC(NCC1CCCCC1)c1cnc(Nc2ccc(Cl)cc2Cl)nc1C(F)(F)F` (centres unmarked) [Example 95, (2,4-Dichlorophenyl)-{5-[1-(cyclohexyhnethyl-amino)-ethyl]-4-trifluoromethyl-pyrimidin-2-yl}-amine], the EC50 is less than 300 nM and the Emax is greater than 50%.

Regarding `CC(O)CNCc1cnc(Nc2cccc(Cl)c2)nc1C(F)(F)F` (centres unmarked) [Example 52, 1-{[2-(3-Chlorophenylamino)-4-trifluoromethyl-pyrimidin-5-ylmethyl]-amino}-propan-2-ol], the Emax is greater than 50%. Further, under setting [1], the 50% effective concentration (EC50) lay within 300 to 1000 nM.

Take `FC(F)(F)c1nc(Nc2cccc(Cl)c2)ncc1CNC1CC1` [Example 23, (3-Chlorophenyl)-(5-cyclopropylaminomethyl-4-trifluoromethyl-pyrimidin-2-yl)-amine,formate]: under setting [1], the EC50 was less than 300 nM. The Emax (yeast agonist assay) is greater than 50%.

Take `Fc1ccc(CNCc2cnc(Nc3cccc(Cl)c3)nc2C(F)(F)F)cc1` [Example 41, (3-Chlorophenyl)-{5-[(4-fluorobenzylamino)-methyl]-4-trifluoromethyl-pyrimidin-2-yl)-amine,formate]: the Emax was greater than 50%. Under setting [1], the EC50 was in the range of 300 to 1000 nM.

As to `FC(F)(F)c1nc(Nc2ccc(Cl)cc2Cl)ncc1CNCC1CC1` [Example 28, (2,4-Dichlorophenyl)-{5-[(cyclopropylmethylamino)-methyl]-4-trifluoromethyl-pyrimidin-2-yl}-amine], the EC50 is less than 300 nM and the Emax was greater than 50%.

Regarding `FC(F)(F)c1nc(Nc2cccc(Cl)c2)ncc1CNCCc1ccccc1` [Example 45, (3-Chlorophenyl)-[5-(phenethylamino-methyl)-4-trifluoromethyl-pyrimidin-2-yl]-amine, formate], the Emax is greater than 50%. Besides, the EC50 under setting [1] was in the range of 300 to 1000 nM.

As for `FC(F)(F)c1nc(Nc2ccc(Cl)cc2Cl)ncc1CN1CCOCC1` [Example 35, (2,4-Dichlorophenyl)-(5-morpholin-4-ylmethyl-4-trifluoromethyl-pyrimidin-2-yl)-amine], the EC50 is less than 300 nM and the Emax is greater than 50%.

As to `FC(F)(F)c1nc(Nc2cccc(Cl)c2)ncc1CNC1CCCC1` [Example 34], the EC50 is less than 300 nM and the Emax was greater than 50%.

For `FC(F)(F)c1nc(Nc2cccc(Cl)c2)ncc1CN1CCCCC1` [Example 39, (3-Chlorophenyl)-(5-piperidin-1-ylmethyl-4-trifluoromethyl-pyrimidin-2-yl)-amine,formate], the Emax was greater than 50%. Also, the EC50 under setting [1] lay within 300 to 1000 nM.

For `CC(C)CCNCc1cnc(Nc2cccc(Cl)c2)nc1C(F)(F)F` [Example 24, (3-Chlorophenyl)-{5-[(3-methylbutylamino)-methyl]-4-trifluoromethyl-pyrimidin-2-yl}-amine,formate], the EC50 under setting [1] is less than 300 nM. The Emax (yeast agonist assay) was greater than 50%.

As for `FC(F)(F)c1nc(Nc2cccc(Cl)c2)ncc1CNCC1CCC1` [Example 18, (3-Chlorophenyl)-{5-[(cyclobutylmethylamino)-methyl]-4-trifluoromethyl-pyrimidin-2-yl}-amine,formate], the EC50 under setting [1] was less than 300 nM. The Emax (yeast agonist assay) was greater than 50%.
